In ChEMBL document CHEMBL1201862, “PubChem BioAssay data set” (2004):
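Grown in 96-well plates, cells were treated for 48 hours with each compound at five concentrations. Insufficient inhibition: endpoint recorded as highest concentration tested. GI50 is the concentration that inhibits growth by half.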 Calls of active or inactive are those of the source. Cut-off read from the data, not from the text of the source: active = GI50 up to about 1.1 µM and inactive = higher.

What was measured:
Assay in all cases: NCI-60 cell line screen, 48 h
[1] = test system: NCI/ADR-RES
[2] = test system: Hs-578T
[3] = test system: UACC-257
[4] = test system: MDA-MB-231
[5] = test system: BT-549
[6] = test system: SN12C
[7] = test system: SF-295
[8] = test system: ACHN
[9] = test system: CAKI-1
[10] = test system: IGROV-1
[11] = test system: MOLT-4
[12] = test system: NCI-H226
[13] = test system: SK-MEL-5
[14] = test system: RPMI-8226
[15] = test system: U-251
[16] = test system: CCRF-CEM
[17] = test system: OVCAR-4
[18] = test system: SNB-19
[19] = test system: 786-0
[20] = test system: COLO 205

Measured: GI50

CCOC(=O)C(NC(=O)c1ccccc1)(Nc1ccc(S(=O)(=O)Nc2cc(C)on2)cc1)C(F)(F)F (stereo not given)
inactive: [1] > 100 µM | [2] > 100 µM | [3] > 10 µM | [4] > 100 µM | [5] > 100 µM | [6] > 100 µM | [7] > 100 µM | [8] > 100 µM | [9] > 100 µM | [10] > 100 µM | [11] > 100 µM | [12] > 100 µM | [13] > 100 µM | [14] > 100 µM | [15] > 100 µM | [16] > 100 µM | [17] > 10 µM | [18] > 100 µM | [19] > 100 µM | [20] > 100 µM

CCCNC1=Nc2ccccc2N(Cc2ccccc2)CC1
inactive: [1] 16.1 µM | [2] 14.9 µM | [3] 14.4 µM | [4] 20.3 µM | [5] 15.5 µM | [6] 31.5 µM | [7] 24.9 µM | [8] 23.2 µM | [9] 21.3 µM | [10] 4.54 µM | [11] 10.9 µM | [12] 26.6 µM | [13] 15 µM | [14] 12.9 µM | [15] 18 µM | [16] 21 µM | [17] 35 µM | [18] 22.2 µM | [19] 32.4 µM | [20] 10.9 µM
